pIC50: −log10 of the molar value.

The pIC50 is −log10 of the IC50, conventionally taken in molar units.

In assay [1] the test system is MCF7 human xenograft model. The assay can be described thus: Tumor growth inhibition in MCF7 human xenograft model. To be noted: Formula (I) 30 mg/kg orally once a day 21 days, fulvestrant 5 mg/mouse subcutaneously once a week 3 weeks. In kind it is in vivo, Balb/c female nude mouse. On the procedure:
1. Tumor Inoculating and Grouping
Estrogen was injected subcutaneously on one day before animal inoculation, twice a week, and 40 μg/20 μL for each time (estrogen specification: 4 mg/2 mL) until the experiment was ended. MCF7 cells resuspended by a serum-free medium were inoculated subcutaneously on the right rib of a Balb/c female nude mouse at 1.5×10^7+matrigel/0.2 mL (cell: matrigel=1:1). While the tumor growed to a volume mean value of 163 mm^3, it was grouped and administered. The group of the compound of Formula (I) was administered orally once a day at an dose of 30 mg/kg for 21 consecutive days; the group of the fulvestrant was administered subcutaneously once a week, 5 mg per animal, for 3 consecutive weeks; and while the compound of Formula (I) was used in combination with the fulvestrant, the same administration mode was used as while used alone.
2. Measurement and Experimental Indicator of Tumor
The tumor volume was measured twice a week with a vernier caliper, the long diameter and the short diameter of the tumor were measured, and its volume calculation formula is: volume=0.5×long diameter×short diameter^2. The relative tumor volume RTV and relative tumor volume increase ratio (T/C) were calculated according to measurement results. […]
A general note: Xenograft models place foreign cells or tissue in a host animal.

A further assay has as its system MCF7. The assay can be described thus: Cell proliferation detection using BrdU method (MCF7). As to conditions: Homo sapiens, 48 hours, fixed-ratio combination 640:3.2 nM series, concentration axis = compound of Formula (I), read-out: Cytological activity on MCF7 in vitro (IC50). In kind it is cell-based.

Regarding `C[C@]12CC[C@@H]3c4ccc(O)cc4C[C@@H](CCCCCCCCC[S+]([O-])CCCC(F)(F)C(F)(F)F)[C@H]3[C@@H]1CC[C@@H]2O` (stereo partly drawn) [Fulvestrant, fulvestrant], the “TGI(%)” value in assay [1] (combination same modes) came out at 55.9%. Further, the “Tumor volume at the end of administration” value in assay [1] (mean ± standard error, start about 163 mm^3, solvent control 468 ± 37) is 216 ± 44 mm^3. The pIC50 in the assay on MCF7 was 9.66.

Source of the values: patent publication US20240075032A1, “A Pharmaceutical Composition for Treating Cancer” (XUANZHU BIOPHARMACEUTICAL CO., LTD., priority 2020, published 2024).
